Laboratory results published in patent publication US20050124645A1, “Methods and compositions for increasing CD4lymphocyte immune responsiveness” (priority 1998, published 2005).
“Also recorded” adds a separate entry of the source.

Tests used:
[1] = system: purified human CD4+ T cells; experiment: Anti-TCR induced proliferation ([3H]-thymidine) of CD4-ligated purified CD4+ T cells, rescue by cytokines; assay type: cell-based; details: for anti-TCR induced proliferative response of CD4-ligated T cells: 20 U/ml cytokine, gp120 or anti-CD4 ligation before plate-bound anti-TCR, 3 days, FIG. 1; for reversal of inhibition of proliferation at higher cytokine concentrations: up to 80 U/ml, data not shown
Protocol: Heparinized venous blood from healthy adult human donors was separated on a Ficoll-Paque (Pharmacia Biotech) gradient to obtain lymphocytes. CD4^+ T cells were isolated by incubation with anti-CD8 mAb (OKT8, 20 Ag/ml, ATCC), followed by negative selection on goat anti-mouse IgG coated Immulan beads (Biotecx Laboratories).
Specifically, the purified CD4^+ T cells in balanced salts solution were incubated with or without gp120 (rgp120SF2, 10 μg/ml) and crosslinked with anti-gp120 antibody (1:250 dilution) or anti-CD4 mAb (anti-CD4, Leu-3α, 20 μg/ml) for 1 hr at 37° C.
Proliferation in response to plate-bound anti-TCR was determined as follows. Cells were washed, resuspended in RPMI-1640 culture media (GIBCO) supplemented with 10% fetal bovine serum (FBS, Gemini BioProducts) and 1×10^5 cells were added to triplicate wells of an anti-T cell receptor monoclonal antibody-coated (anti-TCR, BMA-031, 50 μg/ml) 96-well plate (Becton Dickinson). […] Culture plates were incubated for 3 days at 37° C. with 1 μCi/Well [^3H]-thymidine (NEN) present during the final 5 hours of culture. The cells were harvested and processed to determine ^3H-thymidine incorporation.

IL-2R (α-chain, CD25) = experiment: Activation-induced IL-2R (CD25) expression on CD4 primed T cells by flow cytometry; assay type: cell-based, human; details: 20 U/ml cytokine; 24 hours; FIGS. 2A, 2B
Protocol: Expression of high affinity IL-2R (CD25) was also analyzed in CD4 primed T cells. To determine the expression of IL-2R (α-chain, CD25), the culture plates were set up as described in Example 1 and incubated at 37° C. for 24 hours. 2×10^5 cells were stained with FITC-conjugated anti-CD25 mAb (Pharmingen) and analyzed by flow cytometry (Coulter XL).

JAK3 [2] = experiment: JAK3 expression and tyrosine phosphorylation (immunoprecipitation/Western blot) in TCR/CD3-stimulated CD4+ T cells with or without prior CD4 ligation; assay type: cell-based, human; details: for reversal of gp120 or anti-CD4 induced inhibition of JAK3 expression and activation: 20 U/ml cytokine, FIG. 4
Protocol: In this experiment, the present inventors determined the activation status of JAK3 in CD4^+ T cells which were activated through the TCR subsequent to CD4 ligation.
Briefly, the purified CD4^+ T cells were incubated with or without gp120 and anti-gp120 antibody or anti-CD4 for 1 hour at 37° C. 3×10^6 cells per well were incubated at 37° C. in an anti-CD3 mAb coated (anti-CD3, OKT3, 50 μg/ml, ATCC) 12-well plate. Cells were harvested after various times and lysed in Tris-buffered saline (TBS) containing 1% NP-40, phosphatase inhibitors and protease inhibitors. After micro centrifugation, the post-nuclear lysates were used for immunoprecipitation with anti-JAK3 polyclonal antibody (anti-JAK3, 10 μl, Santa Cruz Biotechnology). The antibody-protein complex was pelleted using Sepharose-conjugated Protein A (Sigma) boiled in sample buffer (0.4% SDS, 3% glycerol and 1% β-mercaptoethanol (2-ME)) and the proteins were separated by 7.5% SDS-PAGE. The proteins were transferred to nitrocellulose membrane and immunoblotted with antiphosphotyrosine mAb (anti-P-Tyr, Ab-2, Oncogene Science) Positive protein bands were detected with horseradish peroxidase (HRP)-conjugated goat anti-mouse IgG (Jackson ImmunoResearch) and SuperSignal Substrate (SSS, Pierce). Membranes were stripped with 62.5 mM Tris-HCl, pH 6.7, containing 10 mM 2-ME, and 2% SDS, immunoblotted with anti-JAK3, and developed with HRP-conjugated protein A and SSS.
In some experiments, 1.5×10^6 cell equivalents of post-nuclear lysate were boiled with sample buffer and separated by 7.5% SDS-PAGE. Nitrocellulose membrane was immunoblotted with (anti-JAK3 and then stripped and immunoblotted with anti-actin mAb (anti-actin, Sigma), as described above. Optical density (O.D.) of positive bands was measured with the Stratagene Eagle Eye II.

JAK3 [3] = experiment: JAK3 expression (Western blot) in mock- or HIV-1 NL4-3-infected CD4+ T cell PHA blasts; assay type: cell-based, human; details: 20 U/ml, 48 hours
Protocol: In this experiment, purified human CD4^+ T cells isolated as described above and activated with PHA for 3 days were infected for 4 days with a laboratory cloned strain of HIV-1, NL4-3. […] Cells were harvested and lysed with TBS/1% NP40 and analyzed on 7.5% SDS PAGE. Western blots using anti-JAK3 or anti-actin were prepared as described in Example 3.

JAK1 = JAK1 activation in T cells stimulated through TCR/CD3 with or without prior CD4 ligation; assay type: cell-based, human; details: CD4 ligation before TCR/CD3 stimulation; FIG. 5
From the text: Another Janus family kinase, JAK1, associates with the β chain of IL-2R and with the α chains of IL-4R and IL-7R, and is autophosphorylated upon activation (Johnston et al. (1994) Nature, 370:151; and Russell et al. (1994) Science, 270:797).

CD4 = CD4 (Homo sapiens, UniProt P01730); details: ligation of CD4; literature; cited from earlier work
[4] = target: T1, protein tyrosine phosphatase (PTP), particularly PTP1B (Homo sapiens, UniProt P18031); details: Pathak & Yi 2001; cited from earlier work
T1 sequence (P18031 1-435): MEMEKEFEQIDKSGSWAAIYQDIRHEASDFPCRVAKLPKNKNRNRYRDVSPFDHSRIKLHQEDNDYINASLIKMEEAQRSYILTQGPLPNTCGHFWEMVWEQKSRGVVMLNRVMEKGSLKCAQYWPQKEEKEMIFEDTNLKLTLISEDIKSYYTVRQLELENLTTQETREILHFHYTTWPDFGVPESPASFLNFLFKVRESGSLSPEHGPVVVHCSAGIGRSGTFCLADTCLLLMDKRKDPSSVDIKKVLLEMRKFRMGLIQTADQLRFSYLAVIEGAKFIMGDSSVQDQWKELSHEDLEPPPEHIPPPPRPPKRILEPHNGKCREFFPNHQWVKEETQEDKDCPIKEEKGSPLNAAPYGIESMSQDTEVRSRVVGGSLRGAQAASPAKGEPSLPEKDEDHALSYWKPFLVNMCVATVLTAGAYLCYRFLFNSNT

HIV-1 LTR = experiment: HIV-1 LTR-luciferase activity in resting CD4+ T cells; assay type: cell-based; details: STAT5 expression vector or IL-2 for 1 hour, FIG. 17
From the text: Resting CD4^+ T cells were transfected with a construct containing luciferase under the control of HIV-1 LTR or a control luciferase construct (Dual-luciferase© Reporter Assay System, Promega, Madison, Wis.). The cells were also optionally transfected with an expression vector encoding STAT5. […] The luciferase activity of the cellular lysates was subsequently measured.

IL-7: cytokine which binds to receptors on T cells having γc; Genzyme
anti-TCR induced proliferative response of CD4-ligated T cells [1]: restored the proliferative response | activation-induced CD25 expression on CD4 primed T cells (IL-2R (α-chain, CD25)): restored activation-induced CD25 expression | reversal of gp120 or anti-CD4 induced inhibition of JAK3 expression and activation (JAK3 [2]): completely reversed | JAK3 expression in anti-CD3 stimulated HIV infected T cells (JAK3 [3]; versus stimulated HIV-infected cells without cytokine): significantly increased; also recorded: increases JAK3 expression | JAK3 expression in anti-CD3 stimulated mock-infected T cells (JAK3 [3]; versus stimulated cells without cytokine): increased JAK3 expression slightly

IL-6: cytokine that binds to receptors on T cells which lack γc
reversal of inhibition of proliferation at higher cytokine concentrations [1]: did not reverse the inhibition of proliferation

gp120: HIV surface glycoprotein, crosslinked with anti-gp120 antibody
extent of inhibition of JAK3 expression and activation (JAK3 [2]; CD4 ligation before anti-CD3 stimulation, FIG. 3A): incomplete | TCR/CD3-induced expression and phosphorylation of JAK3 (JAK3 [2]; CD4 ligation before anti-CD3 stimulation, FIGS. 3A, 3B): inhibits | activation status of JAK1 (JAK1): did not significantly change | TCR/CD3-induced IL-2R expression, IL-2 production, and proliferation (CD4): inhibit

O.O.O.O.O.O.O.O.O.O=C([O-])[C@@H]1[O][Sb]2([O-])([O][Sb]34([OH])[O][C@H]([C@H](O)CO)[C@H]([O]3)[C@H](C(=O)[O-])[O]4)[O][C@H]([C@H](O)CO)[C@@H]1[O]2.[Na+].[Na+].[Na+] [pentostam, stibogluconate sodium]
cellular protein tyrosine phosphatase (PTP) inhibition, particularly PTP1B [4]: inhibit

B1: STAT5: over-expressed from an expression vector encoding STAT5 (protein, UniProt P42229 1-794, looked up)
Signal transducer and …: MAGWIQAQQLQGDALRQMQVLYGQHFPIEVRHYLAQWIESQPWDAIDLDNPQDRAQATQLLEGLVQELQKKAEHQVGEDGFLLKIKLGHYATQLQKTYDRCPLELVRCIRHILYNEQRLVREANNCSSPAGILVDAMSQKHLQINQTFEELRLVTQDTENELKKLQQTQEYFIIQYQESLRIQAQFAQLAQLSPQERLSRETALQQKQVSLEAWLQREAQTLQQYRVELAEKHQKTLQLLRKQQTIILDDELIQWKRRQQLAGNGGPPEGSLDVLQSWCEKLAEIIWQNRQQIRRAEHLCQQLPIPGPVEEMLAEVNATITDIISALVTSTFIIEKQPPQVLKTQTKFAATVRLLVGGKLNVHMNPPQVKATIISEQQAKSLLKNENTRNECSGEILNNCCVMEYHQATGTLSAHFRNMSLKRIKRADRRGAESVTEEKFTVLFESQFSVGSNELVFQVKTLSLPVVVIVHGSQDHNATATVLWDNAFAEPGRVPFAVPDKVLWPQLCEALNMKFKAEVQSNRGLTKENLVFLAQKLFNNSSSHLEDYSGLSVSWSQFNRENLPGWNYTFWQWFDGVMEVLKKHHKPHWNDGAILGFVNKQQAHDLLINKPDGTFLLRFSDSEIGGITIAWKFDSPERNLWNLKPFTTRDFSIRSLADRLGDLSYLIYVFPDRPKDEVFSKYYTPVLAKAVDGYVKPQIKQVVPEFVNASADAGGSSATYMDQAPSPAVCPQAPYNMYPQNPDHVLDQDGEFDLDETMDVARHVEELLRRPMDSLDSRLSPPAGLFTSARGSLS
activity from the HIV-1 LTR (luciferase activity) (HIV-1 LTR): increased activity

B2: IL-12: cytokine that binds to receptors on T cells which lack γc (protein, UniProt P29459 23-219; P29460 23-328, looked up)
Interleukin-12 subunit alpha: RNLPVATPDPGMFPCLHHSQNLLRAVSNMLQKARQTLEFYPCTSEEIDHEDITKDKTSTVEACLPLELTKNESCLNSRETSFITNGSCLASRKTSFMMALCLSSIYEDLKMYQVEFKTMNAKLLMDPKRQIFLDQNMLAVIDELMQALNFNSETVPQKSSLEEPDFYKTKIKLCILLHAFRIRAVTIDRVMSYLNAS
Interleukin-12 subunit beta: IWELKKDVYVVELDWYPDAPGEMVVLTCDTPEEDGITWTLDQSSEVLGSGKTLTIQVKEFGDAGQYTCHKGGEVLSHSLLLLHKKEDGIWSTDILKDQKEPKNKTFLRCEAKNYSGRFTCWWLTTISTDLTFSVKSSRGSSDPQGVTCGAATLSAERVRGDNKEYEYSVECQEDSACPAAEESLPIEVMVDAVHKLKYENYTSSFFIRDIIKPDPPKNLQLKPLKNSRQVEVSWEYPDTWSTPHSYFSLTFCVQVQGKSKREKKDRVFTDKTSATVICRKNASISVRAQDRYYSSSWSEWASVPCS
reversal of inhibition of proliferation at higher cytokine concentrations [1]: did not reverse the inhibition of proliferation

B3: IL-4: cytokine which binds to receptors on T cells having γc; R&D Systems (protein, UniProt P05112 25-153, looked up)
Interleukin-4: HKCDITLQEIIKTLNSLTEQKTLCTELTVTDIFAASKNTTEKETFCRAATVLRQFYSHHEKDTRCLGATAQQFHRHKQLIRFLKRLDRNLWGLAGLNSCPVKEANQSTLENFLERLKTIMREKYSKCSS
anti-TCR induced proliferative response of CD4-ligated T cells [1]: restored the proliferative response | activation-induced CD25 expression on CD4 primed T cells (IL-2R (α-chain, CD25)): restored activation-induced CD25 expression | reversal of gp120 or anti-CD4 induced inhibition of JAK3 expression and activation (JAK3 [2]): completely reversed
